Data from US7785567B2, “Growth hormone-releasing peptides in the treatment or prevention of atherosclerosis and hypercholesterolemia” (Valorisation-Recherche, Société en Commandite, priority 2002, dated 2010).
Where a SMILES comes first, the peptide text is derived from it. Primed or numbered codes have the meaning given here. Where no end group is shown, it is not given here. [ ]: non-standard residue; d: D form. dTrp(2-Me) = Cc1[nH]c2ccccc2c1C[C@@H](N)C(=O)O; Haic′ = not defined here

Key:
ApoE-null mice [1] = experiment: Fatty streak lesion area in aortas, en face oil red-O staining, 12 weeks treatment (Example 1); format: in vivo, mouse; conditions: HFHC diet, HEX 100 μg/kg per day or EP80317 300 μg/kg per day s.c. for 12 weeks from 6 weeks old, vs 0.9% NaCl
Method: GHRPs prevent fatty streak formation in ApoE deficient mice fed a HFHC diet for 12 weeks (from 6 weeks old). Effects of HEX (100 μg/kg per day) and of EP80317 (300 μg/kg per day), administered subcutaneously for 12 weeks (from 6 weeks old).
To determine whether GHRPs reduce atherosclerosis development, we have used the ApoE deficient mice strain and their C57BL/6 control littermates to assess the effects of prolonged (12 weeks) GHRPs treatment on fatty streak formation in mice fed a an enriched lipid diet. The surface area of oil red-O staining aortas of mice has been used as an index of plaque development and changes in the plasma levels of lipids as an index of hypolipemic effect. […]
(§1) The animals were housed in cages (less than 5 per cage) and fed a normal chow diet and water ad libitum. […] Four days before sacrifice, 6 mice from Groups 1 to 3 were injected i.p. with oxLDL (minimally oxidized, 3-6 mmol/mg protein, as determined by Thiobarbituric Acid Reactive Substances (TBARS) assay). […] The entire aorta from the heart, extending 5-10 mm after bifurcation of the iliac arteries and including the subclavian right and left common carotid arteries, was removed, dissected, and evaluated for lesion development by en face oil red-O staining and morphometry of scanned images using the software Scion Image (Scion Corp., Fredrick, Md.). […]

ApoE-null mice [2] = experiment: Plasma lipid analysis (enzymatic kits) after 12 weeks treatment; format: in vivo, mouse; conditions: HFHC diet; for Increase in HDL cholesterol compared to controls: HEX 100 μg/kg or EP80317 300 μg/kg per day for 12 weeks, tended to be increased
Method: A: Effects of 12 weeks treatment (from 6 weeks old) with 0.9% NaCl (open bar), HEX, 100 μg/kg per day (solid bar) or EP80317 300 μg/kg per day (cross-hatched bar) on total plasma cholesterol in mice fed a HFHC or a normal diet.
The animals were housed in cages (less than 5 per cage) and fed a normal chow diet and water ad libitum. At 6 weeks of age, male C57BL/6, CD36 and ApoE-null mice were assigned to 1 of 3 groups (n=12 mice per group): Group 1 received daily injections of 0.9% NaCl (1 μL/g); Group 2, HEX (100 μg/kg, 1 μL/g), and Group 3, EP80317 (300 μg/kg, 1 μL/g). All three groups of mice were fed a HFHC diet (purchased from Research Diet Inc. (D.12108)) from 6 weeks of age. Daily s.c. treatment with HEX, EP80317 or vehicle was begun at 6 weeks old and continued for 12 weeks. Four days before sacrifice, 6 mice from Groups 1 to 3 were injected i.p. with oxLDL (minimally oxidized, 3-6 mmol/mg protein, as determined by Thiobarbituric Acid Reactive Substances (TBARS) assay). At 18 weeks old, mice were fasted overnight, anaesthetised with ketamine-xylazine (90:10 mg/kg) two hours after the s.c. administration of the morning dose of the drug under study. Blood (1 mL) was taken from the heart and put into EDTA pre-coated microcontainers (BD, Franklin Lakes, N.J., USA). Mice were killed, the hearts were perfused with 20 mL 0.9% NaCl. The peritoneal cavity was washed with 3 mL of heparinised saline (10 units/mL) in mice injected i.p. with oxLDL. A hemacytometer and stained cytospin preparation (Diff Quick stain, Dade Diagnostics of P.R. Inc., Aguada, PR) were used to determine the total and differential leukocyte numbers, respectively, for the peritoneal cavity lavage fluid. The entire aorta from the heart, extending 5-10 mm after bifurcation of the iliac arteries and including the subclavian right and left common carotid arteries, was removed, dissected, and evaluated for lesion development by en face oil red-O staining and morphometry of scanned images using the software Scion Image (Scion Corp., Fredrick, Md.). The animal study protocol was reviewed and approved by the institutional Animal Ethics Committee of the Université de Montréal and conducted in accordance with the Canadian Council on Animal Care guidelines for use of experimental animals.
Total plasma cholesterol, triacylglycerol and HDL cholesterol were determined using enzymatic kits (Sigma Chemicals). Appropriate standards and controls were included in each assay.

CD36 = experiment: Western blot of oxLDL-elicited peritoneal macrophages from treated ApoE-null mice; format: in vivo, mouse; conditions: HFHC diet, HEX 100 μg/kg or EP80317 300 μg/kg per day, 12 weeks, normalised to β-actin, vehicle set at 100%
From the text: GHRPs modulate CD36 and ABCA1 protein levels in peritoneal macrophages from ApoE-null mice fed a HFHC diet for 12 weeks. […] Relative protein levels for A, CD36 and B, ABCA1 are normalised to β-actin and expressed as % of change compared to vehicle (0.9% NaCl)-treated controls set at 100%. Data represent the mean of two independent experiments.

[3] = system: human monocytic THP-1 cells; experiment: Lipid accumulation in PMA-differentiated THP-1 macrophages (Oil Red O extraction, 510 nm); format: cell-based; conditions: 10 μM for 24 hrs
Method: A: GHRPs reduce lipid accumulation in differentiated human macrophages. To induce lipid accumulation, human monocytic THP-1 cells were differentiated to macrophages with 5 ng/mL PMA for 48 hrs and then treated as indicated for 24 hrs with 10 μM HEX or EP80317 in the presence of phorbol myristate acetate (PMA). Non-differentiated cells (no PMA) were also analysed. Lipid accumulation was quantified by photometry at 510 nm following extraction of Oil Red O from stained cells. Lipid staining was reduced by 35% and 28% in macrophages treated with HEX and EP80317, respectively, compared to untreated cells.

ApoE-null mice [4] = experiment: Fatty streak lesion area in aortas, treatment begun after start of HFHC diet (Example 2); format: in vivo, mouse; conditions: HFHC diet from 6 weeks
Method: The effects of EP80317 (300 μg/kg per day) administered subcutaneously for 8 weeks (from 10 to 18 weeks of age), 6 weeks (from 12 to 18 weeks of age) and 4 weeks (from 14 to 18 weeks of age) were documented, as well as the effect of hexarelin (100 μg/kg per day) given for 4 weeks (from 14 to 18 weeks of age).
To determine whether GHRPs are able to delay the development or to modulate the regression of fatty streaks, we have used the ApoE-deficient mice to assess the effect of the duration of the treatment with GHRPs on the progression of fatty streaks after the initiation of atherosclerotic lesions induced by a HFHC diet starting at 6 weeks of age.
Male ApoE-null mice (n=35) were housed in cages (less than 5 per cage). After weaning until 4 weeks of age, the mice were fed a normal chow diet and water ad libitum. Starting at 6 weeks of age, the mice were fed a HFHC diet (purchased from Research Diet Inc. (D.12108)). The animals were segregated in 3 groups. • Group 1 (n=10) was subdivided into 2 subgroups, receiving, from 10 to 18 weeks of age (i.e. for 8 weeks), daily injections of EP80317 (300 μg/kg) (n=5) or 0.9% NaCl (n=5). • Group 2 (n=10) was subdivided into 2 subgroups receiving, from 12 to 18 weeks of age (i.e. for 6 weeks), daily injections of EP80317 (300 μg/kg/per day) (n=5) or 0.9% NaCl (n=5). • Group 3 (n=15) was subdivided into 3 subgroups, receiving, from 14 to 18 weeks of age (i.e. for 4 weeks), EP80317 (300 μg/kg/per day) (n=5), or hexarelin (100 μg/kg per day) (n=5) or 0.9% NaCl (n=5).
Mice were euthanised at 18 weeks of age. The entire aortas from the heart extending 5-10 mm after bifurcation of the iliac arteries and including the subclavian right and left common carotids were removed, dissected and evaluated for lesion development by en face oil red-O staining and morphometry of scanned images using the software Scion image (Scion Corp., Frederick, Md.).

CD36-null mice = experiment: oxLDL-induced accumulation of macrophages in the peritoneal cavity; format: in vivo, mouse; conditions: HFHC diet, EP80317 300 μg/kg per day, 12 weeks
Method: (§2) A: Effects of 12 weeks treatment (from 6 weeks old) with 0.9% NaCl (open bar), HEX, 100 μg/kg per day (solid bar) or EP80317, 300 μg/kg per day (cross-hatched bar) on oxLDL (250 μg i.p., <6 nmol MDA/mg lipoprotein)-induced accumulation of macrophages in the peritoneal cavity in wild type C57BL/6 mice and CD36-null mice fed a HFHC diet. Peritoneal macrophage accumulation in wild type mice tended to be reduced by 37%.
as §1, with “libitum. At 6 weeks of age, male C57BL/6, CD36 and ApoE-null mice were assigned to 1 of 3 groups (n=12 mice per group): Group 1 received daily injections of 0.9% NaCl (1 μL/g); Group 2, HEX (100 μg/kg, 1 μL/g), and Group 3, EP80317 (300 μg/kg, 1 μL/g).” for “libitum.”

wild type C57BL/6 mice = experiment: as above; format: in vivo, mouse; conditions: HFHC diet, EP80317 300 μg/kg per day, 12 weeks, oxLDL 250 μg i.p.
Method: as §2
as §1, with “libitum. At 6 weeks of age, male C57BL/6, CD36 and ApoE-null mice were assigned to 1 of 3 groups (n=12 mice per group): Group 1 received daily injections of 0.9% NaCl (1 μL/g); Group 2, HEX (100 μg/kg, 1 μL/g), and Group 3, EP80317 (300 μg/kg, 1 μL/g).” for “libitum.”

ApoE-null mice [5] = experiment: as above; format: in vivo, mouse; conditions: normal chow diet, EP80317 300 μg/kg per day, 12 weeks
Method: B: Effects of 12 weeks treatment (from 6 weeks old) with 0.9% NaCl (open bar), HEX, 100 μg/kg per day (solid bar) or EP80317, 300 μg/kg per day (cross-hatched bar) on oxLDL-induced accumulation of macrophages in the peritoneal cavity in ApoE-null mice fed either a HFHC or a normal diet. Peritoneal macrophage accumulation was reduced by 39% in mice fed a normal diet.
as §1, with “libitum. At 6 weeks of age, male C57BL/6, CD36 and ApoE-null mice were assigned to 1 of 3 groups (n=12 mice per group): Group 1 received daily injections of 0.9% NaCl (1 μL/g); Group 2, HEX (100 μg/kg, 1 μL/g), and Group 3, EP80317 (300 μg/kg, 1 μL/g). All three groups of mice were fed a HFHC diet (purchased from Research Diet Inc. (D.12108)) from 6 weeks of age.” for “libitum.”

[6] = system: peritoneal macrophages isolated from ApoE-null mice; experiment: Lipid accumulation in peritoneal macrophages isolated from treated ApoE-null mice (Oil Red O extraction); format: in vivo, mouse; conditions: HFHC diet from 13 to 18 weeks old, EP80317 300 μg/kg s.c. from 13 to 18 weeks old, vs not treated
Method: B: GHRPs reduced lipid accumulation in peritoneal macrophages isolated from ApoE-null mice fed a HFHC diet from 13 to 18 weeks old. EP80317 (300 μg/kg) s.c. has been administered from 13 to 18 weeks old. Lipid staining (assessed by Oil Red O extraction) was reduced by 57% (compared to peritoneal macrophages isolated from ApoE-null mice fed a HFHC diet from 13 weeks old, but not treated with EP80317).

[7] = cited from earlier work
[8] = treatment for 4 weeks (14 to 18 weeks of age), EP80317 300 μg/kg or hexarelin 100 μg/kg per day, not significant
[9] = EP80317 300 μg/kg daily for 12 weeks from 6 weeks old

Compound	Reduction of lesion area (% of total aorta area) compared to controls (ApoE-null mice [1])	Increase in HDL cholesterol compared to controls (ApoE-null mice [2])	CD36 protein expression in peritoneal macrophages, % of controls (CD36)	Reduction of lipid staining compared to untreated cells [3]	Reduction of lesion area (% total aorta area) compared to controls (ApoE-null mice [4]; [8])	Decrease in non-HDL plasma cholesterol compared to controls (ApoE-null mice [2]; [9])	Decrease in total plasma cholesterol compared to controls (ApoE-null mice [2]; [9])	oxLDL-induced peritoneal macrophage accumulation (CD36-null mice)	Reduction of oxLDL-induced peritoneal macrophage accumulation (wild type C57BL/6 mice)	Reduction of oxLDL-induced peritoneal macrophage accumulation (ApoE-null mice [5])	Reduction of lipid staining in peritoneal macrophages (Oil Red O extraction) [6]	Reduction of lesion area (% total aorta area) compared to controls (ApoE-null mice [4]; treatment for 6 weeks (12 to 18 weeks of age), EP80317 300 μg/kg per day s.c.)	Reduction of lesion area (% total aorta area) compared to controls (ApoE-null mice [4]; treatment for 8 weeks (10 to 18 weeks of age), EP80317 300 μg/kg per day s.c.)	GH-secreting activity in vivo [7]
Cc1[nH]c2ccccc2c1C[C@@H](NC(=O)[C@@H](N)Cc1cnc[nH]1)C(=O)N[C@@H](C)C(=O)N[C@@H](Cc1c[nH]c2ccccc12)C(=O)N[C@H](Cc1ccccc1)C(=O)N[C@@H](CCCCN)C(N)=O [HEX, His-(D) -(Me)Trp-Ala-Trp-(D)-Phe-Lys-NH2, reference compound] (H-H[dTrp(2-Me)]AW[dF]K-NH2)	28%	65%	57 % of controls	35%	8%	–	–	–	–	–	–	–	–	–
Haic-(D) -(Me)Trp-(D)-Lys-Trp-(D)-Phe-Lys-NH2 ([Haic′]W[dK]W[dF]K-NH2; not fully specified (residue 2)) [EP80317]	51%	73%	27 % of controls	28%	36%	31%	30%	did not modulate macrophage accumulation	37%	39%	57%	31.3%	39.2%	devoid of GH-secreting activity in vivo
